Earlier results as cited in patent US12343348B2, “Methods for treating subjects with Prader-Willi syndrome or Smith-Magenis syndrome” (Essentialis, Inc., priority 2014, dated 2025).

Columns and labels:
Kir6.2/SUR1 channel = Kir6.2/SUR1 channel (Rattus norvegicus, UniProt Q09429); details: Dabrowski, et al., Diabetes 51 (2002)
KATP channel = target: T1, KATP channel (Homo sapiens, UniProt Q09428); details: patients with hyperinsulinism and patients with pancreatic insulinoma
T1 construct: host or cells: patients with hyperinsulinism or pancreatic insulinoma (endogenous channel)
T1 sequence (Q09428 whole entry): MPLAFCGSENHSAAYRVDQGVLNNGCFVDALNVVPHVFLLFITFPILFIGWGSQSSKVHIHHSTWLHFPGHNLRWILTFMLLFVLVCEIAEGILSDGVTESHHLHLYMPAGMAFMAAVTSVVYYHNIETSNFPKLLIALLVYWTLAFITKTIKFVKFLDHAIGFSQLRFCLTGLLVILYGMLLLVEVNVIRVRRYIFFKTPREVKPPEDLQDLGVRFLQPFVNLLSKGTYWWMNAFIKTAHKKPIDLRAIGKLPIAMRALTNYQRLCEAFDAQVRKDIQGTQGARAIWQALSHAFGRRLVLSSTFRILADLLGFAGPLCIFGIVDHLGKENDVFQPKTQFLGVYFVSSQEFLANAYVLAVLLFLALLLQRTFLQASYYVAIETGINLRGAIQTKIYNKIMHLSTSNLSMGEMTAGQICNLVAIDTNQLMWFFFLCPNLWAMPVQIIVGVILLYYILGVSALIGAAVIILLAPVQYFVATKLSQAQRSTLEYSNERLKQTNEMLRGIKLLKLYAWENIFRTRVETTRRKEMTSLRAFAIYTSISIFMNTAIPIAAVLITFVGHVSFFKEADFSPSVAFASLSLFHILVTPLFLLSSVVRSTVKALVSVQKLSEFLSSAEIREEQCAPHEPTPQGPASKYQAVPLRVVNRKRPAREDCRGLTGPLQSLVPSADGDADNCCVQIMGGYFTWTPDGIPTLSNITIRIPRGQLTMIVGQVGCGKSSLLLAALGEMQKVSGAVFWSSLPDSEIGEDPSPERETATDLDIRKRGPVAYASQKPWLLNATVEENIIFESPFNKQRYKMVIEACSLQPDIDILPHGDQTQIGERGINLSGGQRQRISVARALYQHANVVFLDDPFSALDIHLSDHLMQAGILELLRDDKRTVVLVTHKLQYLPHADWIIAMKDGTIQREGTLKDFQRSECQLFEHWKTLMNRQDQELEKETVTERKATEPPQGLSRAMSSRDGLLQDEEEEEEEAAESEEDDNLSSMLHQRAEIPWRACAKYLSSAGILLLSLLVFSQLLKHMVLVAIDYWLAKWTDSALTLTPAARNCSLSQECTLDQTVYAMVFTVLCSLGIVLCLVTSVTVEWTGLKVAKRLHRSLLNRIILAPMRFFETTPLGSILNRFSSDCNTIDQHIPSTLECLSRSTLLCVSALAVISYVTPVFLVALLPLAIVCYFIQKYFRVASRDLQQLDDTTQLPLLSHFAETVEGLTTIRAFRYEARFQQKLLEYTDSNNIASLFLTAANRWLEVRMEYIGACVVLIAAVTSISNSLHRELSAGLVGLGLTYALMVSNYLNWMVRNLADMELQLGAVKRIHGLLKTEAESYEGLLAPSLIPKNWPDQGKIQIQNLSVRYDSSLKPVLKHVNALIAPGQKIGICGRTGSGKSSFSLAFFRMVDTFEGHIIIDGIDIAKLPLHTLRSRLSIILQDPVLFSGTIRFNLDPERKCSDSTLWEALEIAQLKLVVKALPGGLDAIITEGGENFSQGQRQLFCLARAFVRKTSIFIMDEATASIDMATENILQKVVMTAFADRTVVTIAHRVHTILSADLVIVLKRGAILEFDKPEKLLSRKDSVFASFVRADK
T1 sequence (Q14654 whole entry partner): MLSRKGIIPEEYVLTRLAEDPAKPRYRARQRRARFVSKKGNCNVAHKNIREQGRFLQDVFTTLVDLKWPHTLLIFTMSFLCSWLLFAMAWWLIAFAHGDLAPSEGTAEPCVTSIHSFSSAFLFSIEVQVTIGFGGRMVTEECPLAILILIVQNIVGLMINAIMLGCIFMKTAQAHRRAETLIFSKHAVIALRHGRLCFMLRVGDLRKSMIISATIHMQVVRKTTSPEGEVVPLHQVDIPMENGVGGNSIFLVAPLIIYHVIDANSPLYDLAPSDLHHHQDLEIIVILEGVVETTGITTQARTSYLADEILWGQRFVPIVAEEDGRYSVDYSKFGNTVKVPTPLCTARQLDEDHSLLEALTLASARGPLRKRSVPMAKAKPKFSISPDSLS

Chain of Kir6.2/SUR1 channel (Q09429 whole entry): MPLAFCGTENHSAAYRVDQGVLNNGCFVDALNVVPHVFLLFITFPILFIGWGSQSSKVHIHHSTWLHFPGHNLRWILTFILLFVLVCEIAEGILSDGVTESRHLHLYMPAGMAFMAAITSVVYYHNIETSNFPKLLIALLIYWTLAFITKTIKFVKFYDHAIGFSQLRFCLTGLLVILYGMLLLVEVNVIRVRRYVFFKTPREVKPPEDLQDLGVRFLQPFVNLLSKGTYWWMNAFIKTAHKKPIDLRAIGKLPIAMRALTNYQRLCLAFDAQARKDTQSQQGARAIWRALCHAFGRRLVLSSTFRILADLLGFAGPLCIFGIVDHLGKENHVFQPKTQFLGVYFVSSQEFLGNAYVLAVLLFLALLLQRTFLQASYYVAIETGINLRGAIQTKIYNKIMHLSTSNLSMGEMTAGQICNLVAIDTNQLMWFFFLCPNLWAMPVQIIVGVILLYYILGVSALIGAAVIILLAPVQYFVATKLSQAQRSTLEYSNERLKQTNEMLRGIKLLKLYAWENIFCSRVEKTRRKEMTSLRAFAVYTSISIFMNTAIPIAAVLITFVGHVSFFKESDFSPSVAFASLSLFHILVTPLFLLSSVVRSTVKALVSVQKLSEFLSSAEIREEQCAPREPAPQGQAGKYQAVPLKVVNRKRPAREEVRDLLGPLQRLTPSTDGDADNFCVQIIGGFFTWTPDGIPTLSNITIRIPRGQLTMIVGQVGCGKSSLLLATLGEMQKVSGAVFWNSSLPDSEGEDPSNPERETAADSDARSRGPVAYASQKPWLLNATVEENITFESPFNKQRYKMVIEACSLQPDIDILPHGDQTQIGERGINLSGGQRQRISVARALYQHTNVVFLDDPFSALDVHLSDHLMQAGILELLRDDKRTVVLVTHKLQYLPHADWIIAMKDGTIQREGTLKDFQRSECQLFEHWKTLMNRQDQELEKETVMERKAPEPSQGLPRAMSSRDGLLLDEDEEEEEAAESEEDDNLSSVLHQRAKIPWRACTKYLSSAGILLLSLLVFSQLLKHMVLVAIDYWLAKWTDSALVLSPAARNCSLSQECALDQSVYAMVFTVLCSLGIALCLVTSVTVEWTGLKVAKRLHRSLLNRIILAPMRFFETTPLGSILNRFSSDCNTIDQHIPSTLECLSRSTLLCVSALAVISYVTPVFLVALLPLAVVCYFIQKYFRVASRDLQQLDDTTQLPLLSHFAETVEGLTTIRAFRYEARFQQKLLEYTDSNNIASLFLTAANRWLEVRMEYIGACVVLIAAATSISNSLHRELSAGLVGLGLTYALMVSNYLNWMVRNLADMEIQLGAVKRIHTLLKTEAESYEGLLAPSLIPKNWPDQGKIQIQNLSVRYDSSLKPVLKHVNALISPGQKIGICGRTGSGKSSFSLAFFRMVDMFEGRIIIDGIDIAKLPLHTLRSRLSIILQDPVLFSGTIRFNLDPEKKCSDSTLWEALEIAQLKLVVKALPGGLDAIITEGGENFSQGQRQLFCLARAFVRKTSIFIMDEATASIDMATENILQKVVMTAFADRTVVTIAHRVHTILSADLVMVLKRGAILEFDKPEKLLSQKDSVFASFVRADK
Chain of Kir6.2/SUR1 channel (Q61743 whole entry partner): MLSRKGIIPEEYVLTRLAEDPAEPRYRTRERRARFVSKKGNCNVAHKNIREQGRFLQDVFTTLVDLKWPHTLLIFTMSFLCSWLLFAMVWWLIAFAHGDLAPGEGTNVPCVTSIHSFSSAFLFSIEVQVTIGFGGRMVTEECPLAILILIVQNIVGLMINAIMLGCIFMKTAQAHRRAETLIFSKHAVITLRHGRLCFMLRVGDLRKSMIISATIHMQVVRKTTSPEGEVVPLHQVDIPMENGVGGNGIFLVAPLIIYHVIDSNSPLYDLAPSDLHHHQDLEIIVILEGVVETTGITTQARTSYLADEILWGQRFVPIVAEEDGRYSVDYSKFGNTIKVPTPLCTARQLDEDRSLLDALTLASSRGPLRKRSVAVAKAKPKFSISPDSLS

Row | KATP channel activation (KATP channel) | SMILES | KATP channel opener selectivity (Kir6.2/SUR1 channel)
1 | – | COc1ccc2c(c1)S(=O)(=O)N=C(NC(C)C)N2 [3-isopropylamino-7-methoxy-4H-1,2,4,-benzothiadiazine 1,1-dioxide] | selective Kir6.2/SUR1 channel opener
2 | effective KATP channel activator | CC(C)N=C1Nc2cc(Cl)c(Cl)cc2S(=O)(=O)N1 [BPDZ 154] | –
